Patent US20230028441A1, “NOVEL HETEROARYL-TRIAZOLE COMPOUNDS AS PESTICIDES” (Bayer Aktiengesellschaft, priority 2019, published 2023)

Columns and labels:
Type in all cases: in vivo
[1] = tested on: cattle tick larvae (Rhipicephalus microplus), strain Parkhurst, resistant against synthetic pyrethroids; assay: Rhipicephalus (Boophilus) microplus in-vitro contact test, larval cattle tick; details: 5 μg/cm^2 (=500 g/ha), after 48 hours, read-out: efficacy (larvae dead or moribund)
Outline: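 Acetone solutions of compound were coated on glass tube walls (900 ppm giving 5 μg/cm^2) and dried. 20–50 pyrethroid-resistant Parkhurst larvae were held per tube at 27° C and 85% relative humidity; after 48 h negative geotaxis scored efficacy as percent larvae dead or moribund.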

[2] = tested on: adult engorged female ticks (Rhipicephalus microplus); assay: Rhipicephalus (Boophilus) microplus injection test; details: 168 h, egg deposition after 7 days, read-out: efficacy (infertile eggs); for pest or weed control at 0.004 mg: 4 μg/animal; for pest or weed control at 0.02 mg: 20 μg/animal
Outline: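 Compound was dissolved in DMSO at 10 mg per 0.5 mL and diluted with DMSO to the test concentration. Five engorged adult females received a 1 μL abdominal injection and were kept in a climate chamber. After 7 days, fertile egg deposition was scored, with unclear eggs held until hatching at about 42 days; 100% efficacy means all eggs were infertile.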

[3] = tested on: adult cat fleas (Ctenocephalides felis); assay: Ctenocephalides felis in-vitro contact test, adult cat flea; details: 5 μg/cm^2 (=500 g/ha), after 48 hours, read-out: efficacy (fleas dead or moribund)
Protocol: 9 mg compound is solved in 1 mL acetone and diluted with acetone to the desired concentration. 250 μL of the test solution is filled in 25 mL glass test tubes and homogeneously distributed on the inner walls by rotation and tilting on a shaking device (2 h at 30 rpm). With a compound concentration of 900 ppm, an inner surface of 44.7 cm^2 and a homogeneous distribution, a dose of 5 μg/cm^2 is achieved.
After the solvent has evaporated, each test tube is filled with 5-10 adult cat fleas (Ctenocephalides felis), closed with a perforated lid and incubated in a lying position at room temperature and relative humidity. After 48 hours efficacy is determined. The fleas are patted on the ground of the tubes and are incubated on a heating plate at 45-50° C. for at most 5 minutes. Immotile or uncoordinated moving fleas, which are not able to escape the heat by climbing upwards, are marked as dead or moribund.
An efficacy of 100% means all fleas are dead or moribund; 0% means no fleas are dead or moribund.

[4] = tested on: adult unfed cat fleas (Ctenocephalides felis); assay: Ctenocephalides felis oral test; details: 48 h, 100 ppm in cattle blood, after 2 days
Outline: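 About 20 adult unfed Ctenocephalides felis fed through parafilm on cattle blood dosed with compound (DMSO stock diluted in blood), blood chamber at 37°C, fleas at room temperature. Mortality (%) scored after 2 days; 100% means all fleas killed.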

[5] = tested on: larvae of the banded cucumber beetle (Diabrotica balteata); assay: Diabrotica balteata spray test; details: 168 h, after 7 days, wheat seeds, read-out: efficacy (seedlings grown up); for pest or weed control at 32 µg/disc, 100 g/ha: 100 g/ha (=32 μg/well); for pest or weed control at 160 µg/disc, 500 g/ha: 500 g/ha (=160 μg/well)
Outline: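 Germinated wheat seedlings (5 per well, agar plates) sprayed with compound in acetone/DMF diluted in water with 1000 ppm emulsifier, then infested with 10-20 larvae per unit. Efficacy scored after 7 days as % seedling growth relative to untreated, uninfested control (100% = normal growth, 0% = none).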

[6] = tested on: brown planthopper (Nilaparvata lugens); assay: Nilaparvata lugens spray test; details: in Oryza sativa, 96 h
Protocol: Solvent: 78.0 parts by weight of acetone • • 1.5 parts by weight of dimethylformamide
(§1) Emulsifier: alkylarylpolyglycol ether
(§2) To produce a suitable preparation of active compound, 1 part by weight of active compound is mixed with the stated amount of solvents and is diluted with water, containing an emulsifier concentration of 1000 ppm, to the desired concentration. Further test concentrations are prepared by dilution with emulsifier containing water.
Rice plants (Oryza sativa) are sprayed with a preparation of the active ingredient of the desired concentration and the plants are infested with the brown planthopper (Nilaparvata lugens).
After 4 days mortality in % is determined. 100% means all planthoppers have been killed and 0% means none of the planthoppers have been killed.

[7] = tested on: fall armyworm larvae (Spodoptera frugiperda); assay: Spodoptera frugiperda spray test (maize leaf sections); details: 168 h
Outline: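 Maize leaf sections were sprayed with compound formulated in acetone/DMF and diluted in water containing 1000 ppm emulsifier. Once dry, sections were infested with fall armyworm larvae. Mortality (%) was scored after 7 days.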

[8] = tested on: green peach aphid (Myzus persicae); assay: Myzus persicae spray test; details: foliar, 120 h, after 5 days, Chinese cabbage leaf disks
Protocol: Solvent: 78.0 parts by weight acetone • 1.5 parts by weight dimethylformamide
as §1, §2
Chinese cabbage (Brassica pekinensis) leaf disks infected with all instars of the green peach aphid (Myzus persicae), are sprayed with a preparation of the active ingredient of the desired concentration.
(§3) After 5 days mortality in % is determined. 100% means all aphids have been killed and 0% means none of the aphids have been killed.

[9] = tested on: larvae of the southern green stink bug (Nezara viridula); assay: Nezara viridula spray test; details: in Hordeum vulgare, 96 h
Outline: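 Barley plants infested with Nezara viridula larvae were sprayed with compound in acetone/dimethylformamide, diluted in water containing 1000 ppm alkylarylpolyglycol ether emulsifier. Mortality (%) was scored after 4 days; 100% means all stink bugs killed.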

[10] = tested on: adult brown dog ticks (Rhipicephalus sanguineus); assay: Rhipicephalus sanguineus in-vitro contact test with adult brown dog ticks; details: after 48 hours, read-out: efficacy (ticks dead or moribund); for pest or weed control at 1 µg/cm2, 100 g/ha: 1 μg/cm^2 (=100 g/ha); for pest or weed control at 5 µg/cm2, 500 g/ha: 5 μg/cm^2 (=500 g/ha)
Outline: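 Compound in acetone coated onto glass tube inner walls at 900 ppm, giving 5 μg/cm^2. Adult ticks (5-10 per tube) held at room temperature for 48 h, then placed on a 45-50° C. heating plate for up to 5 min. Ticks unable to climb away counted dead or moribund; efficacy given as % dead/moribund.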

[11] = tested on: green peach aphid (Myzus persicae); assay: Myzus persicae oral test; details: 120 h
Protocol: Solvent: 100 parts by weight acetone
To produce a suitable preparation of active compound, 1 part by weight of active compound is mixed with the stated amount of solvent, and the concentrate is diluted with water to the desired concentration.
50 μL compound solution is filled in microtiter plates and 150 μL IPL41 insect medium (33%+15% sugar) is added to obtain a total volume of 200 μL per well. Afterwards the plates are sealed with parafilm through which a mixed population of the green peach aphid (Myzus persicae) can suck on the compound preparation.
as §3

CNc1nc(C(C)NC(=O)c2cc(Cl)cc(Br)c2)n(-c2ncccn2)n1 (stereo not drawn) [I-121]
90%: mortality at 500 g/ha [6]
100%: pest or weed control at 5 µg/cm2 [1] | pest or weed control at 0.004 mg [2] | pest or weed control at 0.02 mg [2] | pest or weed control at 5 µg/cm2 [3] | mortality at 100 ppm [4] | pest or weed control at 32 µg/disc, 100 g/ha [5] | mortality at 100 g/ha [7]

C[C@H](NC(=O)c1cc(OC(F)(F)F)cc(C2CC2)c1)c1nc(N)nn1-c1ncccn1 [I-216]
90%: mortality at 100 g/ha [8]
100%: mortality at 100 g/ha [7]

CNc1nc([C@H](C)NC(=O)c2cc(OC(F)(F)F)cc(S(=O)(=O)C3CC3)c2)n(-c2ncccn2)n1 [I-184]
100%: pest or weed control at 32 µg/disc, 100 g/ha [5] | mortality at 500 g/ha [9] | mortality at 500 g/ha [6]
90%: mortality at 100 g/ha [8]

CNc1nc([C@H](C)NC(=O)c2cc(Br)cc(Br)c2)n(-c2ncccn2)n1 [I-131]
90%: mortality at 500 g/ha [6]
100%: pest or weed control at 5 µg/cm2 [1] | pest or weed control at 5 µg/cm2 [3] | pest or weed control at 1 µg/cm2, 100 g/ha [10] | pest or weed control at 5 µg/cm2, 500 g/ha [10] | pest or weed control at 32 µg/disc, 100 g/ha [5] | mortality at 500 g/ha [9] | mortality at 100 g/ha [7]

CC(NC(=O)c1cc(Br)cc(Br)c1)c1nc(N)nn1-c1ccc(C(=O)N2CCOCC2)cn1 (racemic) [I-107, N-[1-[5-amino-2-[5-(morpholine-4-carbonyl)-2-pyridyl]-1,2,4-triazol-3-yl]ethyl]-3,5-dibromo-benzamide]
90%: pest or weed control at 5 µg/cm2 [3] | mortality at 4 ppm [11]

CSc1nc(C(C)NC(=O)c2cc(Cl)cc(S(C)(=O)=O)c2)n(-c2ccc(Cl)cn2)n1 (racemic) [I-059, 3-chloro-N-[1-[2-(5-chloro-2-pyridyl)-5-methylsulfanyl-1,2,4-triazol-3-yl]ethyl]-5-methylsulfonyl-benzamide]
100%: pest or weed control at 5 µg/cm2 [1] | pest or weed control at 0.004 mg [2] | pest or weed control at 0.02 mg [2] | pest or weed control at 32 µg/disc, 100 g/ha [5] | pest or weed control at 160 µg/disc, 500 g/ha [5] | mortality at 4 ppm [11] | mortality at 100 g/ha [9] | mortality at 500 g/ha [9] | mortality at 500 g/ha [7]
80%: pest or weed control at 5 µg/cm2 [3]

CC(NC(=O)c1cc(Br)cc(C(F)(F)F)c1)c1nc(N(C)C(=O)OC(C)(C)C)nn1-c1ncccn1 (stereo not drawn) [I-089]
100%: pest or weed control at 0.004 mg [2] | mortality at 100 ppm [4] | pest or weed control at 32 µg/disc, 100 g/ha [5] | mortality at 4 ppm [11] | mortality at 100 g/ha [7]
90%: pest or weed control at 5 µg/cm2 [3]

CNc1nc([C@H](C)NC(=O)c2cc(Cl)cc(C(C)(C)C#N)c2)n(-c2ncccn2)n1 [I-137]
80%: pest or weed control at 5 µg/cm2 [1]
100%: pest or weed control at 32 µg/disc, 100 g/ha [5] | mortality at 500 g/ha [9] | mortality at 100 g/ha [7]
90%: pest or weed control at 5 µg/cm2 [3] | mortality at 500 g/ha [6]

C[C@H](NC(=O)c1cc(C(F)(F)F)cc(C(F)(F)F)c1)c1nc(N(C)C(=O)OC(C)(C)C)nn1-c1ncccn1 [I-133, tert-butyl N-[5-[(1S)-1-[[3,5-bis(trifluoromethyl)benzoyl]amino]ethyl]-1-pyrimidin-2-yl-1,2,4-triazol-3-yl]-N-methyl-carbamate]
100%: pest or weed control at 5 µg/cm2 [1] | pest or weed control at 5 µg/cm2 [3] | pest or weed control at 32 µg/disc, 100 g/ha [5] | mortality at 500 g/ha [9] | mortality at 500 g/ha [6] | mortality at 100 g/ha [7]

C[C@H](NC(=O)c1cc(C(F)(F)F)cc(C(F)(F)F)c1)c1nc(N(C)C)nn1-c1ncccn1 [I-141, N-[(1S)-1-[5-(dimethylamino)-2-pyrimidin-2-yl-1,2,4-triazol-3-yl]ethyl]-3,5-bis(trifluoromethyl)benzamide]
80%: pest or weed control at 1 µg/cm2, 100 g/ha [10]
100%: pest or weed control at 5 µg/cm2 [1] | pest or weed control at 5 µg/cm2 [3] | pest or weed control at 5 µg/cm2, 500 g/ha [10] | pest or weed control at 32 µg/disc, 100 g/ha [5] | mortality at 500 g/ha [9] | mortality at 500 g/ha [6] | mortality at 100 g/ha [7]

CC(=O)N(C)c1nc(C(C)NC(=O)c2cc(C(F)(F)F)cc(C(F)(F)F)c2)n(-c2ncccn2)n1 (stereo not drawn) [I-091]
100%: pest or weed control at 0.004 mg [2] | pest or weed control at 5 µg/cm2 [3] | mortality at 100 ppm [4] | pest or weed control at 32 µg/disc, 100 g/ha [5] | mortality at 4 ppm [11] | mortality at 100 g/ha [7]

CON(C)c1nc([C@H](C)NC(=O)c2cc(C(F)(F)F)cc(S(C)(=O)=O)c2)n(-c2ncccn2)n1 [I-153]
90%: mortality at 100 g/ha [8]
100%: mortality at 500 g/ha [9] | mortality at 500 g/ha [6]

C[C@H](NC(=O)c1cc(OC(F)(F)F)cc(S(=O)(=O)C2CC2)c1)c1nc(N)nn1-c1ccc(C#N)cn1 [I-205]
100%: mortality at 100 g/ha [7]
90%: mortality at 100 g/ha [8]

CC(NC(=O)c1cc(Cl)cc(C(F)(F)F)c1)c1nc(NC(=O)C2(Cl)CC2)nn1-c1ncccn1 (stereo not drawn) [I-022]
90%: pest or weed control at 5 µg/cm2 [1]
100%: pest or weed control at 0.004 mg [2] | pest or weed control at 5 µg/cm2 [3] | mortality at 100 ppm [4] | pest or weed control at 1 µg/cm2, 100 g/ha [10] | pest or weed control at 5 µg/cm2, 500 g/ha [10] | mortality at 4 ppm [11] | mortality at 100 g/ha [7]

CNc1nc(C(C)NC(=O)c2cc(Br)cc(Br)c2)n(-c2ncccn2)n1 (stereo not drawn) [I-100]
100%: pest or weed control at 5 µg/cm2 [1] | pest or weed control at 0.004 mg [2] | pest or weed control at 5 µg/cm2 [3] | mortality at 100 ppm [4] | pest or weed control at 1 µg/cm2, 100 g/ha [10] | pest or weed control at 5 µg/cm2, 500 g/ha [10] | pest or weed control at 32 µg/disc, 100 g/ha [5] | mortality at 4 ppm [11] | mortality at 100 g/ha [7]

CC(NC(=O)c1cc(Cl)cc(S(C)(=O)=O)c1)c1nc([S+](C)[O-])nn1-c1ccc(Cl)cn1 (racemic) [I-061, 3-chloro-N-[1-[2-(5-chloro-2-pyridyl)-5-methylsulfinyl-1,2,4-triazol-3-yl]ethyl]-5-methylsulfonyl-benzamide]
100%: pest or weed control at 160 µg/disc, 500 g/ha [5] | mortality at 4 ppm [11] | mortality at 100 g/ha [9] | mortality at 500 g/ha [9]
90%: mortality at 500 g/ha ([8]; 500 g/ha)
